# Results as given in paper PMC6290777, “Inhalation of the prodrug PI3K inhibitor CL27c improves lung function in asthma and fibrosis” (Nature Communications, 2018).
# Experiments:
# [1] = system: Akt phosphorylation (Ser473) in CLL cells; assay: Akt phosphorylation in CLL cells stimulated with anti-IgM; format: cell-based, human; conditions: CL27c 10 nM–10 µM
# Method: CLL cells (#Hs 505.T, ATCC® CRL-7306™) were cultured with RPMI additioned with 10% FBS and 100 μg/ml penicillin and streptomycin. The day of the assay CLL cells were seeded in 96-well plate at a concentration of 7 × 10^4 cells/ml in starving medium, RPMI free. The cells were starved for 6 h and subsequently pretreated for 1.5 h with CL27c at different concentrations. The cells were stimulated for 15 min with 15 μg/ml of goat anti-Human IgM-MU chain specific antibody (Sigma-Aldrich #I0759-1MG) and proteins were extracted with Laemmli buffer.
# For all cell types, phosphorylated Akt (P-Akt, Ser 473, 1:100, Cell Signaling Technology #4060) production was detected by western blot analysis and quantified with ChemiDoc™ XRS system. P-Akt signals are normalized on endogenous. For the calculation of EC50 values, a percentage of residual P-Akt was calculated for each inhibitor concentration by using the control vehicle as 100%. To derive the EC50, all data were plotted on a dose response curve (Graph Pad software) and the EC50 was calculated by using the non-linear regression fit (equation [log agonist] vs response–variable slope).
# Supplementary Figure 3: Inhibition of Akt phosphorylation at Ser473 (pAkt473) […]
# panel). […] The respective EC50 was calculated by using nonlinear
# [2] = system: murine bone marrow-derived macrophages; assay: BMDM migration (Boyden chamber); format: cell-based, mouse; conditions: CXCL12 100 nM and C5a 50 nM; CL27c 1 and 10 µM
# Method: For the migration assay, BMDMs (isolated as above described) were pretreated with Versene (Gibco™ #15040066) to detach them from the plate, washed, and incubated with free RPMI with different concentrations of CL27c for at least 2 h. Migration assay was subsequently performed by using a Boyden chamber toward C5a (50 nM, Sigma-Aldrich #SRP4895A) and CXCL12 (100 nM, Peprotech #250-20A) chemokines for 1 h at 37 °C, 5% CO2. Migrated BMDMs, attached to the polycarbonate of the Boyden chamber, were stained with Diff-Quik® reagent (MICROPTIC S.L. #DQ-ST) and counted at the microscope (5 fields/sample). The percentage of migrated cells was calculated by relating the number of the treated cells with the control vehicle (free RPMI).
# [3] = system: in vitro differentiated Treg; assay: Treg viability assessment; format: cell-based, C57BL/6 mice; conditions: 72 h; tested 1, 3, 10 or 30 uM
# Method: Cells were obtained from Lymph nodes and spleen from naive C57BL/6. Cells were then purified with CD4 T cell isolation Kit and with CD25 biotin and microbeads anti-biotin. Purified cells were cultured for 72 h in a 96-wells plate with anti-CD3/CD28 coated (1 ug/ml), TGF-B (1 ng/ml), or Cl27C (1, 3, 10 or 30 uM). After 72 h, the cells were harvested and stained with PBS (2% Bovine serum fetal) and anti-CD4 and fixable viability dye for 10 min. Cells were then fixed and permeabilized with intracellular fixation and permeabilization buffer set (eBioscience). Anti-FoxP3 was used for […]. After the staining, the cells were acquired with FACS VERSE machine and analyzed by FlowJo X software. […]
# obtained at 200 × magnification were analyzed using the software Image -J (NIH, USA). Results were expressed as extracellular matrix deposition area (pixels). […]
# Akt phosphorylation was measured by western blot as described in the “Western blot analysis” in […]
# Cells were obtained from Lymph nodes and spleen from naive C57Bl/6J and purified with CD4 T cell isolation Kit (Miltenyi Biotec #130-104-454) and with CD25 biotin (eBioscience #13-0252-81) and microbeads anti-biotin (Miltenyi Biotec #130-090-485). […] Positive stained cells were analyzed with FlowJo X software after removal of doublets events and debris through FSC-A/FSC-H gating.
smiles,measurement,setting,value
COC(=O)c1cccc(Cn2cc(-c3cccc4c(=O)cc(N5CCOCC5)[nH]c34)nn2)c1 [CL27c],Akt/PKB phosphorylation,[1],readily reduced Akt/PKB phosphorylation
same,chemotaxis of BMDM,[2],significantly reduce CXCL12- and C5a-induced chemotaxis
same,concentration with toxic effects on Treg viability,[3],30 µM
